11 compounds from ChEMBL document CHEMBL1123599, “Diketopiperazines as a new class of platelet-activating factor inhibitors” (J Med Chem, 1987) can be followed below.

The species entered for this assay is Oryctolagus cuniculus. Put plainly: Inhibition of rabbit platelet aggregation induced by PAF (Platelet activating factor). The assay is classed as functional.
In general, IC50 refers to the concentration that gives 50% inhibition. Read a high IC50 as weaker potency. Compound `CSC[C@H]1NC(=O)[C@@H](Cc2cn(C)c3ccccc23)NC1=O` gave an IC50 of 7900 nM.
Compound `CSCC[C@H]1NC(=O)[C@@H]([C@@H](C)c2cccc3ccccc23)NC1=O` registered an IC50 of 1900 nM.
For `CSCC[C@H]1NC(=O)[C@@H]([C@@H](C)c2cn(C)c3ccccc23)NC1=O`, the IC50 stood at 3600 nM.
Turning to `CSC[C@@H]1NC(=O)[C@@H](Cc2cn(C)c3ccccc23)NC1=O`, the IC50 was 36000 nM.
Regarding `CSCC[C@H]1NC(=O)[C@@H]([C@H](C)c2cccc3ccccc23)NC1=O`, the IC50 stood at 180 nM.
For the compound `CSCC[C@H]1NC(=O)[C@@H]([C@H](C)c2cn(C)c3ccccc23)NC1=O`, the IC50 was 700 nM.
As to `CSC[C@@H]1N=C(C2=C(O)C=CC2)[C@H]([C@@H](C)[C@@H]2C(=O)N(C)c3ccccc32)NC1=O`, the IC50 is 370 nM.
Consider `COc1cc([C@H]2CC[C@H](c3cc(OC)c(OC)c(OC)c3)O2)cc(OC)c1OC`, for which it took 320 nM to reach half-maximal inhibition (IC50).
For `CSC[C@H]1NC(=O)[C@H](Cc2cn(C)c3ccccc23)NC1=O`, half-maximal inhibition (IC50) required 140000 nM.
Consider `CSC[C@@H]1NC(=O)[C@H](Cc2cn(C)c3ccccc23)NC1=O`, for which the IC50 was determined as 250000 nM.
`CSCCC1NC(=O)C(Cc2cn(C)c3ccccc23)NC1=O` (stereo unspecified) came in with a concentration for half-maximal inhibition (IC50) of 2300 nM.
